Test results reported in patent publication US9365833B2, “Leucine zipper variant and use thereof” (Samsung Electronics Co., Ltd., priority 2013, dated 2016).

Tested on: skin cancer cell line A-431
Assay: cancer cell growth inhibition (CellTiter-Glo cell viability)
Type: cell-based
Conditions: mutant p53 expression, up to 15 μM, 5 days; FIG. 11
Experimental: The leucine zipper variant p53LZ2 was evaluated for anticancer activity against the osteosarcoma cell line SJSA-1 (ATCC), the breast cancer cell line MCF7 (ATCC), and the skin cancer cell line A-431 (ATCC), the first two expressing wild-type p53 and the other expressing mutant p53.
Each of the cell lines was seeded at a density of 1×10^3 cells/well in 10% FBS-supplemented RPMI (Gibco) or DMEM (Gibco) into 96-well plates. The next day, the leucine zipper variant (TAT-p53LZ2; TAT (RKKRRQRRR; SEQ ID NO: 5) linked to the N-terminus of p53LZ2, constructed in Example 1) or Nutlin-3 (Sigma) was added at a concentration of 0, 0.59, 0.88, 1.32, 1.98, 2.96, 4.44, 6.67, 10, or 15 μM (increasing by 1.5 fold) in an amount of 100 μL to each well before the cells were cultured for 5 days at 37° C. in an 5% CO2 incubator. To each well was added 80 μL of CellTiter-Glo reagent (Promega), followed by measuring luminescence on EnVision Multilabel Reader (PerkinElmer) to examine cell viability.

COc1ccc(C2=N[C@@H](c3ccc(Cl)cc3)[C@@H](c3ccc(Cl)cc3)N2C(=O)N2CCNC(=O)C2)c(OC(C)C)c1 [Nutlin-3]
cytotoxicity in A431 cell line: failed to exert cytotoxicity
